Measured values from patent publication US10357574B2, “Optical sensor conjugates for detecting reactive oxygen and/or reactive nitrogen species in vivo” (The General Hospital Corporation, priority 2010, dated 2019).

System: infarcted mouse hearts
Assay: Mouse model of myocardial infarction (permanent coronary ligation), fluorescence imaging of heart sections
Assay type: in vivo, mice (C57/B6)
Details: injected intravenously into the tail-vein 12-14 hours after MI, imaged 24 hours later
Procedure: To investigate the utility of the optical sensor conjugate in vivo, we determined the ability of the sensor to monitor ischemia and inflammation as a result of permanent coronary ligation in a mouse model of myocardial infarction. For all experiments, the agents (optical sensor conjugate or fluorogenic small molecule with linker) were injected intravenously into the tail-vein of the mice 12-14 hours after MI and imaged 24 hours later when neutrophil recruitment to the infarct is high.
Anesthesized mice were intubated and a thoracotomy was performed in the 4th left intercostal space to visualize the left ventricle where the left coronary artery was ligated. […]
Hearts were excised and rinsed in PBS and cut into myocardial rings of 1-mm thickness and either immediately stained with 2-3-5-triphenyl tetrazolium chloride (TTC) (Nahrendorf et al. Circulation, 113:1196-202 (2006)) to highlight the infarcted tissue or used for histological analysis. Fluorescence reflectance imaging of side-by-side myocardial rings of controls and injected hearts was performed in the GFP channel (lexc=450-480 nm with lem 500-530 nm) and Cy5 channel (lexc=620-650 nm with lem=680-710 nm) using an Olympus OV-100 system (Olympus, Center Valley, Pa.). For histology and fluorescence microscopy, the tissue was embedded in OCT medium (Sakura Finetek, Torrance, Calif.). […]

CCN(CC)c1ccc2c(c1)Oc1cc(N(CC)CC)ccc1N2C(=O)CCCC(=O)O [small molecule probe, sodium 5-(3,7-bis(diethylamino)-10H-phenoxazin-10-yl)-5-oxopentanoate]
localization of fluorescence in coronal heart sections (fluorescence reflectance imaging): washed out of the infarct and into the myocardium
